In US6673839B1, “Pharmaceutical compositions with antitumour activity” (Universita' Degli Studi di Catania, priority 1998, dated 2004):
Where a name gives a salt, the structure may show the parent alone.

What was measured:
[1] = system: cells from 4 primitive epidermoid carcinomas of the larynx and 1 primitive undifferentiated carcinoma of the nasopharynx; assay: Effects of L-aC on cell cycle of cultured primitive human tumour cells (cytofluorimetric analysis); format: cell-based
Procedure: The effects of L-aC on cells from 4 primitive epidermoid carcinomas of the larynx and 1 primitive undifferentiated carcinoma of the nasopharynx were tested.
Tissue fragments from the tumour mass were mechanically dissociated in Hank's solutions adding an antibiotic and an antifungal to obtain a cell monosuspension free of agglomerates. The resulting suspension was centrifuged at 1200 rpm for 5 m′ and the pellet was resuspended in MEM culture medium supplemented with 10% of patient serum, to obtain a concentration of 2−3×10^4 cells/ml of medium. 1 ml Samples were prepared from the suspension, in amounts equivalent to the number of the concentrations to be assayed (0.2-20 mg/ml) as well as a control sample.
The suspensions were exposed to the medicament in Dubnoff bath at 37° C. for 24 h, then centrifuged and resuspended in 1 ml of fixing solution (tris buffer+methanol (1:3)) for 30 minutes and finally stained with 0.5% propyl iodide with simultaneous treatment with RNase.
Cytofluorimetric analysis in order to evaluate the percentage distribution of the cell cycle phases, was performed by an Ortho Diagnostic Spectrum III cytofluorigraph, equipped with Graphic Method computerized program.
The evaluation of the cell sensitivity to the medicament was based on the extent of the perturbations induced by L-aC on the cell cycle.

[2] = system: Yoshida tumour; assay: Chemopreventive effects on Yoshida tumour inoculation and thriving; format: in vivo, Sprague-Dowley rats; conditions: for animals showing ascites: day 8 after inoculation
Procedure: In order to elucidate the actual chemoprevention antitumour Potentialities of L-aC, 125 Sprague-Dowley rats (4 months old, mean weight: 200 g), under standard feeding and temperature conditions (25° C.), were divided in 5 groups and treated as follows:
Group 1: 25 rats were intraperitoneally treated, on alternate days for 10 days, with 25 mg of L-aC diluted in 5 ml of saline solution. On day 10 they were inoculated with Yoshida tumour.
Group 2: 25 rats were intraperitoneally treated, on alternate days for 10 days, with 25 mg of L-aC diluted in 5 ml of saline solution. On day 10 they were inoculated with Yoshida tumour. Starting from day 11, they were further treated intraperitoneally, on alternate days, with 25 mg of L-aC diluted in 5 ml of saline solution, for a further 10 days.
Group 3: 25 previously untreated rats were inoculated, on day 10, with Yoshida tumour. Starting from day 14 they were intraperitoneally treated, on alternate days, with 25 mg of L-aC diluted in 5 ml of saline solution for 10 days.
Group 4: 25 previously untreated rats were inoculated on day 10 with Yoshida tumour. On day 18 to 24 they were intraperitoneally treated, on alternate days, with 25 mg of L-aC diluted in 5 ml of saline solution for 10 days.
Group 5: 25 previously untreated rats were inoculated on day 10 with Yoshida tumour. On day 18 to 24 they were subjected to emptying, on alternate days, of 5 ml of ascitic fluid which was substituted with 50 mg of L-aC diluted in 5 ml of saline solution.
The onset and evolution of the tumour were checked by daily observation and weighing.

CC(=O)OC(CC(=O)[O-])C[N+](C)(C)C [L-aC, L-acetylcarnitine hydrochloride]
increase in the percentage of S phase cells compared with the control ([1]; 0.2 mg/ml, 24 h, all samples): about 10%
effect on cell cycle ([1]; 20 mg/ml, 24 h): block in the percentage of the cells in G1 phase
G1/S+G2M ratio after the treatment ([1]; 20 mg/ml, tumour with pre-treatment ratio 31/69): 70/30
necroscopy finding ([2]; 6 animals sacrified at end of observation): no presence of the disease
animals showing ascites ([2]; Group 1 (25 mg L-aC i.p. alternate days 10 days before inoculation)): 4/25
surviving animals ([2]; Group 1, 25 mg L-aC i.p. alternate days for 10 days, inoculated day 10, day 01 of observation): 25
surviving animals ([2]; Group 1, 25 mg L-aC i.p. alternate days for 10 days, inoculated day 10, day 03): 25
surviving animals ([2]; Group 1, 25 mg L-aC i.p. alternate days for 10 days, inoculated day 10, day 05): 25
surviving animals ([2]; Group 1, 25 mg L-aC i.p. alternate days for 10 days, inoculated day 10, day 07): 25
surviving animals ([2]; Group 1, 25 mg L-aC i.p. alternate days for 10 days, inoculated day 10, day 09): 25
surviving animals ([2]; Group 1, 25 mg L-aC i.p. alternate days for 10 days, inoculated day 10, day 10): 25
surviving animals ([2]; Group 1, 25 mg L-aC i.p. alternate days for 10 days, inoculated day 10, day 11): 25
surviving animals ([2]; Group 1, 25 mg L-aC i.p. alternate days for 10 days, inoculated day 10, day 14): 25
surviving animals ([2]; Group 1, 25 mg L-aC i.p. alternate days for 10 days, inoculated day 10, day 18): 25
surviving animals ([2]; Group 1, 25 mg L-aC i.p. alternate days for 10 days, inoculated day 10, day 21): 20
surviving animals ([2]; Group 1, 25 mg L-aC i.p. alternate days for 10 days, inoculated day 10, day 24): 15
surviving animals ([2]; Group 1, 25 mg L-aC i.p. alternate days for 10 days, inoculated day 10, day 27): 13
surviving animals ([2]; Group 1, 25 mg L-aC i.p. alternate days for 10 days, inoculated day 10, day 30): 13
surviving animals ([2]; Group 1, 25 mg L-aC i.p. alternate days for 10 days, inoculated day 10, day 45): 13
animals free from the disease and still alive ([2]; Group 1, of 21 ascites-free animals, day 27 of observation): 13
animals with late ascites that died ([2]; Group 1, of 21 ascites-free animals, within day 27 of observation): 8
day of observation by which ascitic animals died ([2]; Group 1, the 4 animals with ascites): ≤ 26 days
animals showing ascites ([2]; Group 2 (25 mg L-aC i.p. alternate days 10 days before and 10 days after inoculation)): 5/25
surviving animals ([2]; Group 2, 25 mg L-aC i.p. alternate days 10 days before and 10 days after inoculation (day 10), day 01 of observation): 25
surviving animals ([2]; Group 2, 25 mg L-aC i.p. alternate days 10 days before and 10 days after inoculation (day 10), day 03): 25
surviving animals ([2]; Group 2, 25 mg L-aC i.p. alternate days 10 days before and 10 days after inoculation (day 10), day 05): 25
surviving animals ([2]; Group 2, 25 mg L-aC i.p. alternate days 10 days before and 10 days after inoculation (day 10), day 07): 25
surviving animals ([2]; Group 2, 25 mg L-aC i.p. alternate days 10 days before and 10 days after inoculation (day 10), day 09): 25
surviving animals ([2]; Group 2, 25 mg L-aC i.p. alternate days 10 days before and 10 days after inoculation (day 10), day 10): 25
surviving animals ([2]; Group 2, 25 mg L-aC i.p. alternate days 10 days before and 10 days after inoculation (day 10), day 11): 25
surviving animals ([2]; Group 2, 25 mg L-aC i.p. alternate days 10 days before and 10 days after inoculation (day 10), day 14): 25
surviving animals ([2]; Group 2, 25 mg L-aC i.p. alternate days 10 days before and 10 days after inoculation (day 10), day 18): 25
surviving animals ([2]; Group 2, 25 mg L-aC i.p. alternate days 10 days before and 10 days after inoculation (day 10), day 21): 21
surviving animals ([2]; Group 2, 25 mg L-aC i.p. alternate days 10 days before and 10 days after inoculation (day 10), day 24): 21
surviving animals ([2]; Group 2, 25 mg L-aC i.p. alternate days 10 days before and 10 days after inoculation (day 10), day 27): 21
surviving animals ([2]; Group 2, 25 mg L-aC i.p. alternate days 10 days before and 10 days after inoculation (day 10), day 30): 21
surviving animals ([2]; Group 2, 25 mg L-aC i.p. alternate days 10 days before and 10 days after inoculation (day 10), day 45): 21
animals free from the disease and still alive ([2]; Group 2, of 20 ascites-free animals, day 27 of observation): 18
animals with late ascites that died ([2]; Group 2, of 20 ascites-free animals, within day 27): 2
animals still alive with markedly low or even no ascites ([2]; Group 2, day 27 of observation): 3
animals still alive ([2]; Group 3 (25 mg L-aC i.p. alternate days from day 14, inoculated day 10), day 27 of observation): 16/25
surviving animals ([2]; Group 3, inoculated day 10, 25 mg L-aC i.p. alternate days from day 14 for 10 days, day 01 of observation): 25
surviving animals ([2]; Group 3, inoculated day 10, 25 mg L-aC i.p. alternate days from day 14 for 10 days, day 03): 25
surviving animals ([2]; Group 3, inoculated day 10, 25 mg L-aC i.p. alternate days from day 14 for 10 days, day 05): 25
surviving animals ([2]; Group 3, inoculated day 10, 25 mg L-aC i.p. alternate days from day 14 for 10 days, day 07): 25
surviving animals ([2]; Group 3, inoculated day 10, 25 mg L-aC i.p. alternate days from day 14 for 10 days, day 09): 25
surviving animals ([2]; Group 3, inoculated day 10, 25 mg L-aC i.p. alternate days from day 14 for 10 days, day 10): 25
surviving animals ([2]; Group 3, inoculated day 10, 25 mg L-aC i.p. alternate days from day 14 for 10 days, day 11): 25
surviving animals ([2]; Group 3, inoculated day 10, 25 mg L-aC i.p. alternate days from day 14 for 10 days, day 14): 25
surviving animals ([2]; Group 3, inoculated day 10, 25 mg L-aC i.p. alternate days from day 14 for 10 days, day 18): 25
surviving animals ([2]; Group 3, inoculated day 10, 25 mg L-aC i.p. alternate days from day 14 for 10 days, day 21): 20
surviving animals ([2]; Group 3, inoculated day 10, 25 mg L-aC i.p. alternate days from day 14 for 10 days, day 24): 18
surviving animals ([2]; Group 3, inoculated day 10, 25 mg L-aC i.p. alternate days from day 14 for 10 days, day 27): 16
surviving animals ([2]; Group 3, inoculated day 10, 25 mg L-aC i.p. alternate days from day 14 for 10 days, day 30): 16
surviving animals ([2]; Group 3, inoculated day 10, 25 mg L-aC i.p. alternate days from day 14 for 10 days, day 45): 16
ascites amount in survivors ([2]; Group 3, day 27): markedly low or even no ascites amount
animals still alive ([2]; Group 4 (25 mg L-aC i.p. alternate days day 18 to 24, inoculated day 10), day 27 of observation): 11/25
surviving animals ([2]; Group 4, inoculated day 10, 25 mg L-aC i.p. alternate days day 18 to 24, day 01 of observation): 25
surviving animals ([2]; Group 4, inoculated day 10, 25 mg L-aC i.p. alternate days day 18 to 24, day 03): 25
surviving animals ([2]; Group 4, inoculated day 10, 25 mg L-aC i.p. alternate days day 18 to 24, day 05): 25
surviving animals ([2]; Group 4, inoculated day 10, 25 mg L-aC i.p. alternate days day 18 to 24, day 07): 25
surviving animals ([2]; Group 4, inoculated day 10, 25 mg L-aC i.p. alternate days day 18 to 24, day 09): 25
surviving animals ([2]; Group 4, inoculated day 10, 25 mg L-aC i.p. alternate days day 18 to 24, day 10): 25
surviving animals ([2]; Group 4, inoculated day 10, 25 mg L-aC i.p. alternate days day 18 to 24, day 11): 25
surviving animals ([2]; Group 4, inoculated day 10, 25 mg L-aC i.p. alternate days day 18 to 24, day 14): 25
surviving animals ([2]; Group 4, inoculated day 10, 25 mg L-aC i.p. alternate days day 18 to 24, day 18): 25
surviving animals ([2]; Group 4, inoculated day 10, 25 mg L-aC i.p. alternate days day 18 to 24, day 21): 15
surviving animals ([2]; Group 4, inoculated day 10, 25 mg L-aC i.p. alternate days day 18 to 24, day 24): 13
surviving animals ([2]; Group 4, inoculated day 10, 25 mg L-aC i.p. alternate days day 18 to 24, day 27): 11
surviving animals ([2]; Group 4, inoculated day 10, 25 mg L-aC i.p. alternate days day 18 to 24, day 30): 11
surviving animals ([2]; Group 4, inoculated day 10, 25 mg L-aC i.p. alternate days day 18 to 24, day 45): 11
ascites amount in survivors ([2]; Group 4, day 27): markedly low or even no ascites amount
day of observation by which all animals died ([2]; Group 5 (50 mg L-aC replacing 5 ml ascitic fluid, alternate days day 18 to 24)): ≤ 26 days
surviving animals ([2]; Group 5, inoculated day 10, 50 mg L-aC replacing 5 ml ascitic fluid alternate days day 18 to 24, day 01 of observation): 25
surviving animals ([2]; Group 5, inoculated day 10, 50 mg L-aC replacing 5 ml ascitic fluid alternate days day 18 to 24, day 03): 25
surviving animals ([2]; Group 5, inoculated day 10, 50 mg L-aC replacing 5 ml ascitic fluid alternate days day 18 to 24, day 05): 25
surviving animals ([2]; Group 5, inoculated day 10, 50 mg L-aC replacing 5 ml ascitic fluid alternate days day 18 to 24, day 07): 25
surviving animals ([2]; Group 5, inoculated day 10, 50 mg L-aC replacing 5 ml ascitic fluid alternate days day 18 to 24, day 09): 25
surviving animals ([2]; Group 5, inoculated day 10, 50 mg L-aC replacing 5 ml ascitic fluid alternate days day 18 to 24, day 10): 25
surviving animals ([2]; Group 5, inoculated day 10, 50 mg L-aC replacing 5 ml ascitic fluid alternate days day 18 to 24, day 11): 25
surviving animals ([2]; Group 5, inoculated day 10, 50 mg L-aC replacing 5 ml ascitic fluid alternate days day 18 to 24, day 14): 25
surviving animals ([2]; Group 5, inoculated day 10, 50 mg L-aC replacing 5 ml ascitic fluid alternate days day 18 to 24, day 18): 25
surviving animals ([2]; Group 5, inoculated day 10, 50 mg L-aC replacing 5 ml ascitic fluid alternate days day 18 to 24, day 21): 8
surviving animals ([2]; Group 5, inoculated day 10, 50 mg L-aC replacing 5 ml ascitic fluid alternate days day 18 to 24, day 24): 3
surviving animals ([2]; Group 5, inoculated day 10, 50 mg L-aC replacing 5 ml ascitic fluid alternate days day 18 to 24, day 27): 0
surviving animals ([2]; Group 5, inoculated day 10, 50 mg L-aC replacing 5 ml ascitic fluid alternate days day 18 to 24, day 30): 0
surviving animals ([2]; Group 5, inoculated day 10, 50 mg L-aC replacing 5 ml ascitic fluid alternate days day 18 to 24, day 45): 0
general condition of surviving animals ([2]; day 45 of observation): good health
deaths during further observation ([2]; survivors, further 6 weeks): no deaths occurred
